Like-named read-outs stand apart in the source and are kept apart here.
Assays:
[1] = tested on: RPMI 8226 cells; test: Cell growth inhibition (resazurin, 48 hours), RPMI 8226; settings: Homo sapiens, RPMI-8226, read-out: RPMI 8226 EC50 (nM), Table 15; mean EC50
[2] = tested on: U266 cells; test: Cell growth inhibition (resazurin, 48 hours), U266; settings: Homo sapiens, U-266, read-out: U266 EC50 (nM), Table 15; mean EC50
[3] = tested on: MES-SA cells; test: Cell growth inhibition (resazurin, 48 hours), MES-SA
[4] = tested on: MES-SA/Dx5 cells; test: cells

EC50 [2] [nM]	Structure (SMILES)	EC50 [1] [nM]	% cytotoxicity, mean ± SD [3] [%]	EC50 ([3]; Homo sapiens, MES-SA, read-out: EC50 (nM) MES-SA, Table 16) [nM]	EC50 ([3]; Homo sapiens, MES-SA, read-out: EC50 (nM), mean, Table 7, MES-SA) [nM]	EC50 ([3]; read-out: EC50 (nM) MES-SA, Table 16) [nM]	EC50 ([4]; Homo sapiens, MES-SA/Dx5, read-out: EC50 (nM), mean ± SD, Table 7, MES-SA/Dx5) [nM]	Fold change ([4]; Table 16, ratio of EC50 values (MES-SA/Dx5:MES-SA)) [fold]
> 20000	CC12OC(=O)C1(C(=O)C1CCCCC1)NC(=O)C2CCCl (centres unmarked) [Formula II-8C]	> 20000						
	CC(=O)O[C@H]1C(=O)[C@@]2(C)[C@H]([C@H](OC(=O)c3ccccc3)[C@]3(O)C[C@H](OC(=O)[C@H](O)[C@@H](NC(=O)c4ccccc4)c4ccccc4)C(C)=C1C3(C)C)[C@]1(OC(C)=O)CO[C@@H]1C[C@@H]2O [Paclitaxel, reference compound]		63 ± 7	5.6	5 ± 2	4.6	2040 ± 150	798

— patent US20050049294A1, “Methods of using [3.2.0] heterocyclic compounds and analogs thereof” (priority 2003, published 2005)
